Reference: patent publication US20260183275A1, “SUBSTITUTED QUINOLONE COMPOUNDS USEFUL AS INHIBITORS OF TLR9” (Bristol-Myers Squibb Company, priority 2022, published 2026)

Assays:
Assay type in all cases: cell-based
human TLR9 = target: T1, human TLR9 (Homo sapiens, UniProt Q9NR96); assay: TLR9 inhibition reporter assay (HEK-Blue cells, SEAP reporter); settings: HEK-Blue cells overexpressing human TLR9; stimulated with ODN2006 5 nM; SEAP read after 22 hour; dose range 0.05 nM-50 μM
T1 construct: host or cells: HEK-Blue cells
T1 sequence (Q9NR96 26-1032): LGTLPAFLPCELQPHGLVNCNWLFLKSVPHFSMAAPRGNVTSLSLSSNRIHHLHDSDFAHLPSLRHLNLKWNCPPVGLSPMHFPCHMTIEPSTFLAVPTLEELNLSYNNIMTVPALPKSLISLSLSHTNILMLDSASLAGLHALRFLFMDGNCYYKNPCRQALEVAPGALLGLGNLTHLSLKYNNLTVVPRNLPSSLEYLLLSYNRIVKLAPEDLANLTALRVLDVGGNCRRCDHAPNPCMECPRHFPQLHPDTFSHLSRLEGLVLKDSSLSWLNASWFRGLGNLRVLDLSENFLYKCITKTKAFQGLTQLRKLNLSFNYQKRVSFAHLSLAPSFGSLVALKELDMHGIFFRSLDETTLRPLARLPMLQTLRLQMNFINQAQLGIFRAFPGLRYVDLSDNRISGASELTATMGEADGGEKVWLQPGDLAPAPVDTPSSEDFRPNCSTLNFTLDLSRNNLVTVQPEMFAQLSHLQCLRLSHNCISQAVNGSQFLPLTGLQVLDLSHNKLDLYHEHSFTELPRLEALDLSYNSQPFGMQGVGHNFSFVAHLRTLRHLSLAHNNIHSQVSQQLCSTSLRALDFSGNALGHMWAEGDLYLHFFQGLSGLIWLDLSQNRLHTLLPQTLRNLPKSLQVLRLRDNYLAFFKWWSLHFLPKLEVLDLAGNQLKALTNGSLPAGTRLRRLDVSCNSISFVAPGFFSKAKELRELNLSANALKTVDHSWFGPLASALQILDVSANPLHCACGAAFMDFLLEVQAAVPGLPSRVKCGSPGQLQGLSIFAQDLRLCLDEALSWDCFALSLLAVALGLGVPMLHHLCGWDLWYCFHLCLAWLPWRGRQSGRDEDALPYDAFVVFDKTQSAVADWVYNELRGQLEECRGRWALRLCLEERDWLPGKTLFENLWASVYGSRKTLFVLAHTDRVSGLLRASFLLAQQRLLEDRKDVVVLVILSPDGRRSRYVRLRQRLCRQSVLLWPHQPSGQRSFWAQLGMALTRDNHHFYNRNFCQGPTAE
Method: (§1) HEK-Blue™-cells (Invivogen) overexpressing human TLR7, TLR8 or TLR9 receptors were used for screening inhibitors of these receptors using an inducible SEAP (secreted embryonic alkaline phosphatase) reporter gene under the control of the IFN-β minimal promoter fused to five NF-κB and AP-1-binding sites. Briefly, cells are seeded into Greiner 384 well plates (15000 cells per well for TLR7, 20,000 for TLR8 and 25,000 for TLR9) and then treated with test compounds in DMSO to yield a final dose response concentration range of 0.05 nM-50 μM. After a 30 minute compound pre-treatment at room temperature, the cells are then stimulated with a TLR7 ligand (gardiquimod at a final concentration of 7.5 μM), TLR8 ligand (R848 at a final concentration of 15.9 μM) or TLR9 ligand (ODN2006 at a final concentration of 5 nM) to activate NF-κB and AP-1 which induce the production of SEAP. After a 22 hour incubation at 37° C., 5% CO2, SEAP levels are determined with the addition of HEK-Blue™ Detection reagent (Invivogen), a cell culture medium that allows for detection of SEAP, according to manufacturer's specifications. The percent inhibition is determined as the % reduction in the HEK-Blue signal present in wells treated with agonist plus DMSO alone compared to wells treated with a known inhibitor.

human TLR7 = target: T2, human TLR7 (Homo sapiens, UniProt Q9NYK1); assay: TLR7 inhibition reporter assay (HEK-Blue cells, SEAP reporter); settings: HEK-Blue cells overexpressing human TLR7; stimulated with gardiquimod 7.5 μM; SEAP read after 22 hour; dose range 0.05 nM-50 μM
T2 construct: host or cells: HEK-Blue cells
T2 sequence (Q9NYK1 27-1049): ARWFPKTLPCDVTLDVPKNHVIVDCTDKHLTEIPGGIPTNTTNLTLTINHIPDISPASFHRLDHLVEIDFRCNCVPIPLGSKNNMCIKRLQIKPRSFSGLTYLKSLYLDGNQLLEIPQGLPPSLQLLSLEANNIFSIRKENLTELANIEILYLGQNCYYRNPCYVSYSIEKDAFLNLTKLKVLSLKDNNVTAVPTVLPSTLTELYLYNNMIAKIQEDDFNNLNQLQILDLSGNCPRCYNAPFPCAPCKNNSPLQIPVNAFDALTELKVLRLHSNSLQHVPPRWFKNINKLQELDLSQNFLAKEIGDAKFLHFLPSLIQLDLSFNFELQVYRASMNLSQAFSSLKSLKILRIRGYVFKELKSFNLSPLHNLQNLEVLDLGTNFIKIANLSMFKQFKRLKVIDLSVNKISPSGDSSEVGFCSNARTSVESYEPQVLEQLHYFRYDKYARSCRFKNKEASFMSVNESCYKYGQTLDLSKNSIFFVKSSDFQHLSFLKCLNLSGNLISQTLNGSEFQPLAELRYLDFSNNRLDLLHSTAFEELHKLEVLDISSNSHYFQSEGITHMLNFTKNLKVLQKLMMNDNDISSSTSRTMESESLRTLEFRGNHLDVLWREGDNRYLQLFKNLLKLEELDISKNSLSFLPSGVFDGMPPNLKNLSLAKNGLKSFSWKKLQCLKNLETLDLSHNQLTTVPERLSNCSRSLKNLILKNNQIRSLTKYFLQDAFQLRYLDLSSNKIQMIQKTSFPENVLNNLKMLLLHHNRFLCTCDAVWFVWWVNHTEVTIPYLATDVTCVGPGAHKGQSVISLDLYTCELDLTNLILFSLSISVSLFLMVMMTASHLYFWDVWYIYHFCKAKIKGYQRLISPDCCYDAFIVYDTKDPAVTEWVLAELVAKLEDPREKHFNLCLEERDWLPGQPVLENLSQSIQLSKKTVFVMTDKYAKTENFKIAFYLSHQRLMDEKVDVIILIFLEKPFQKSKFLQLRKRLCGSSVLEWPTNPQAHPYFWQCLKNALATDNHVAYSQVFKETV
Method: as §1

human TLR8 = target: T3, human TLR8 (Homo sapiens, UniProt Q9NR97); assay: TLR8 inhibition reporter assay (HEK-Blue cells, SEAP reporter); settings: HEK-Blue cells overexpressing human TLR8; stimulated with R848 15.9 μM; SEAP read after 22 hour; dose range 0.05 nM-50 μM
T3 construct: host or cells: HEK-Blue cells
T3 sequence (Q9NR97 27-1041): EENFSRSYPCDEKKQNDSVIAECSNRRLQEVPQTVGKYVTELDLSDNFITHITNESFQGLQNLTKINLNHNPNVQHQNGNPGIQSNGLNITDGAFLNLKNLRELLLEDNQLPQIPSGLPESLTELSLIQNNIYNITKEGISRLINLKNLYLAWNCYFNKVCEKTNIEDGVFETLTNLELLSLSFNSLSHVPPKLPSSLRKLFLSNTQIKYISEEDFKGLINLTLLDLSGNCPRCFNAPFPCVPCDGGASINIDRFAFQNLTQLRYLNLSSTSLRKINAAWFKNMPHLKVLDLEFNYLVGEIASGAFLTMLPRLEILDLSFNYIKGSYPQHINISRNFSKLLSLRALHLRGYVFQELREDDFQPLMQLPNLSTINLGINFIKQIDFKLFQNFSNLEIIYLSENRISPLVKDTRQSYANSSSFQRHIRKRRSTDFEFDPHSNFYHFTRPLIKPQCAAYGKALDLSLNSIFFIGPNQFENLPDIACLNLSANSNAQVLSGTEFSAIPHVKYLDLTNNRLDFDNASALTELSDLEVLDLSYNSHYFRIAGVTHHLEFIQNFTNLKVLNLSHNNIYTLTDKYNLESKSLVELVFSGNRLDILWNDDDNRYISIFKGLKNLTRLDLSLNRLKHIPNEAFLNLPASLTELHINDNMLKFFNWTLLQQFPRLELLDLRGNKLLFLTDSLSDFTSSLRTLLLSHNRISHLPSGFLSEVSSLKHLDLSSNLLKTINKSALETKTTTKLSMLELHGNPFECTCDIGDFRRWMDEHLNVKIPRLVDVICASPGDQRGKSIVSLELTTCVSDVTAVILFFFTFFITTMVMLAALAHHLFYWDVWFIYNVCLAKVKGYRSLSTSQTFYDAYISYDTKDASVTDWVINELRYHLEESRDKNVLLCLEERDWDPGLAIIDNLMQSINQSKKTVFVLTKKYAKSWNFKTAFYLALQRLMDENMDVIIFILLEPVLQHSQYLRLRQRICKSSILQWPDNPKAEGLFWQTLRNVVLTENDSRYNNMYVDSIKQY
Method: as §1

Row | SMILES | IC50 (human TLR9) [nM] | IC50 (human TLR7) [µM] | IC50 (human TLR8) [µM]
1 | CC(C)N1CCN(c2ccc(-c3ccc4[nH]c(=O)c(-c5ccc(F)cc5)cc4c3)cc2)CC1 [Example 31, 3-(4-fluorophenyl)-6-{4-[1-(propan-2-yl)piperazin-1-yl]phenyl}-1,2-dihydroquinolin-2-one] | 286 | 42.6 | 16.7
2 | CC(C)N1CCN(c2ccc(-c3ccc4[nH]c(=O)c(-c5ccc(OC(F)F)cc5)cc4c3)cc2)CC1 [Example 36, 3-[4-(difluoromethoxy)phenyl]-6-{4-[4-(propan-2-yl)piperazin-1-yl]phenyl}-1,2-dihydroquinolin-2-one] | 344 | ≥ 50 | ≥ 50
3 | CC(C)N1CCN(c2ccc(-c3ccc4[nH]c(=O)c(-c5c(Cl)cccc5Cl)cc4c3)cc2)CC1 [Example 37] | 367 | 5.56 | ≥ 50
4 | CC(C)N1CCN(c2ccc(-c3ccc4[nH]c(=O)c(-c5ccc(Cl)cc5)cc4c3)cc2)CC1 [Example 39, 3-(4-chlorophenyl)-6-{4-[4-(propan-2-yl)piperazin-1-yl]phenyl}-1,2-dihydroquinolin-2-one] | 387 | ≥ 50 | ≥ 50
5 | CC(C)N1CCN(c2ccc(-c3ccc4[nH]c(=O)c(-c5c(F)c(F)c(F)c(F)c5F)cc4c3)cc2)CC1 [Example 40, 3-(2,3,4,5,6-pentafluorophenyl)-6-{4-[4-(propan-2-yl)piperazin-1-yl]phenyl}-1,2-dihydroquinolin-2-one] | 399 | ≥ 50 | ≥ 50
6 | CC(C)N1CCN(c2ccc(-c3ccc4[nH]c(=O)c(-c5c(F)cc(F)cc5F)cc4c3)cc2)CC1 [Example 41, 6-{4-[4-(propan-2-yl)piperazin-1-yl]phenyl}-3-(2,4,6-trifluorophenyl)-1,2-dihydroquinolin-2-one] | 411 | 4.77 | ≥ 50

Second part, the compound after the results:

Row | IC50 (human TLR9) [nM] | IC50 (human TLR7) [µM] | IC50 (human TLR8) [µM] | SMILES
7 | 275 | 5.86 | 1.83 | CC(C)N1CCN(c2ccc(-c3ccc4[nH]c(=O)c(-c5ccccc5NS(C)(=O)=O)cc4c3)cc2)CC1 [Example 29, N-[2-(2-oxo-6-{4-[4-(propan-2-yl)piperazin-1-yl]phenyl}-1,2-dihydroquinolin-3-yl)phenyl]methanesulfonamide]
8 | 277 | 2.16 | 5.21 | COc1cccc(-c2cc3cc(-c4ccc(N5CCN(C(C)C)CC5)cc4)ccc3[nH]c2=O)c1 [Example 30, 3-(3-methoxyphenyl)-6-{4-[4-(propan-2-yl)piperazin-1-yl]phenyl}-1,2-dihydroquinolin-2-one]
9 | 293 | 0.418 | 0.017 | CC(C)N1CCN(c2ccc(-c3ccc4[nH]c(=O)c(-c5cccnc5)cc4c3)cc2)CC1 [Example 32, 6-{4-[4-(propan-2-yl)piperazin-1-yl]phenyl}-3-(pyridin-3-yl)-1,2-dihydroquinolin-2-one]
10 | 300 | 2.23 | 4.7 | CC(C)N1CCN(c2ccc(-c3ccc4[nH]c(=O)c(-c5ccccc5C(F)(F)F)cc4c3)cc2)CC1 [Example 33, 6-{4-[4-(propan-2-yl)piperazin-1-yl]phenyl}-3-[2-(trifluoromethyl)phenyl]-1,2-dihydroquinolin-2-one]
11 | 314 | 1.29 | 14.1 | CC(C)N1CCN(c2ccc(-c3ccc4[nH]c(=O)c(-c5nn(C)c6ccccc56)cc4c3)cc2)CC1 [Example 35, 3-(1-methyl-1H-indazol-3-yl)-6-{4-[4-(propan-2-yl)piperazin-1-yl]phenyl}-1,2-dihydroquinolin-2-one]
12 | 376 | 8.88 | ≥ 50 | CC(C)N1CCN(c2ccc(-c3ccc4[nH]c(=O)c(-c5ccc(Cl)cc5Cl)cc4c3)cc2)CC1 [Example 38, 3-(2,4-dichlorophenyl)-6-{4-[4-(propan-2-yl)piperazin-1-yl]phenyl}-1,2-dihydroquinolin-2-one]
13 | 427 | 2.14 | 2.47 | CC(C)N1CCN(c2ccc(-c3ccc4[nH]c(=O)c(-c5ccccc5F)cc4c3)cc2)CC1 [Example 42, 3-(2-fluorophenyl)-6-{4-[4-(propan-2-yl)piperazin-1-yl]phenyl}-1,2-dihydroquinolin-2-one]
